Results from ChEMBL document CHEMBL4330144, “A mitochondria-targeted organic arsenical accelerates mitochondrial metabolic disorder and function injury” (Bioorg Med Chem, 2019).
Activity calls are given as the source filed them. The calls are words filed in the database; no cut-off is given here.

Key:
NB-4 [1] = experiment: Induction of apoptosis in human NB4 cells assessed as necrotic cells after 24 hrs in presence of Nec-1 by Annexin V-FITC/propidium iodide staining based flow cytometry (reference value: 0.1%); format: functional
NB-4 [2] = experiment: Cytotoxicity against human NB4 cells assessed as reduction in cell viability at 1 to 1.2 uM after 24 hrs in presence of DMP by trypan blue assay; format: functional, cell-based
NB-4 [3] = experiment: Cytotoxicity against human NB4 cells after 48 hrs by MTT assay; format: functional, cell-based; conditions: NB-4, 48 h
SGC-7901 = experiment: Cytotoxicity against human SGC7901 cells after 48 hrs by MTT assay; format: functional, cell-based; conditions: SGC-7901, 48 h

## O=C(CC[P+](c1ccccc1)(c1ccccc1)c1ccccc1)Nc1ccc([As]2SCCCS2)cc1.[Cl-]
NB-4 [1]
  Activity: 1%
NB-4 [2]
  Activity: inactive
NB-4 [3]
  IC50: 510 nM
SGC-7901
  IC50: 990 nM
